Experimental data from ChEMBL document CHEMBL1157521, “Discovery of a potent, selective, and less flexible selective norepinephrine reuptake inhibitor (sNRI)” (Bioorg Med Chem Lett, 2008).

Assays:
[1] = target: Sodium-dependent dopamine transporter (Homo sapiens, UniProt Q01959); experiment: Inhibition of dopamine uptake at human DAT in human HEK293 cells; format: cell-based
[2] = target: Sodium-dependent serotonin transporter (Homo sapiens, UniProt P31645); format: cell-based, HEK293;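 also: blockade of serotonin uptake through human SERT expressed in HEK293 cells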
Chain of Sodium-dependent serotonin transporter (P31645 whole entry): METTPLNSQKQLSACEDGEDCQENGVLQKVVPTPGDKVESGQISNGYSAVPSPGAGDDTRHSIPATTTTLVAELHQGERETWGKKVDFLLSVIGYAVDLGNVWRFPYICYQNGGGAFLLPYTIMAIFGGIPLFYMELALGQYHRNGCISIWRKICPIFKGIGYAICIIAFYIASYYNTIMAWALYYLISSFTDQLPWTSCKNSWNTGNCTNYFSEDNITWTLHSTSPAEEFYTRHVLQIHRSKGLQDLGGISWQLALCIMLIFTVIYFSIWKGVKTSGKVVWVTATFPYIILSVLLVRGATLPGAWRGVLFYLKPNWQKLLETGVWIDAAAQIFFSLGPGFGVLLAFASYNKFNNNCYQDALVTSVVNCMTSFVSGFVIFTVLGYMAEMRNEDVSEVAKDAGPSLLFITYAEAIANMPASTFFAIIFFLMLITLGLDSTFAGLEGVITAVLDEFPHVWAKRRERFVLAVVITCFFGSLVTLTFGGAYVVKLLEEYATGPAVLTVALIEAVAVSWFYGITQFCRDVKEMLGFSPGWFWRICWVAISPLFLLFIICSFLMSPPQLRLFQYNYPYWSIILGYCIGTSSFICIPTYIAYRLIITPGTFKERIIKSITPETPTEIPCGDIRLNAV

[3] = target: Sodium-dependent noradrenaline transporter (Homo sapiens, UniProt P23975); experiment: Inhibition of norepinephrine uptake at human NET in human HEK293 cells; format: cell-based
Chain of Sodium-dependent noradrenaline transporter (P23975 whole entry): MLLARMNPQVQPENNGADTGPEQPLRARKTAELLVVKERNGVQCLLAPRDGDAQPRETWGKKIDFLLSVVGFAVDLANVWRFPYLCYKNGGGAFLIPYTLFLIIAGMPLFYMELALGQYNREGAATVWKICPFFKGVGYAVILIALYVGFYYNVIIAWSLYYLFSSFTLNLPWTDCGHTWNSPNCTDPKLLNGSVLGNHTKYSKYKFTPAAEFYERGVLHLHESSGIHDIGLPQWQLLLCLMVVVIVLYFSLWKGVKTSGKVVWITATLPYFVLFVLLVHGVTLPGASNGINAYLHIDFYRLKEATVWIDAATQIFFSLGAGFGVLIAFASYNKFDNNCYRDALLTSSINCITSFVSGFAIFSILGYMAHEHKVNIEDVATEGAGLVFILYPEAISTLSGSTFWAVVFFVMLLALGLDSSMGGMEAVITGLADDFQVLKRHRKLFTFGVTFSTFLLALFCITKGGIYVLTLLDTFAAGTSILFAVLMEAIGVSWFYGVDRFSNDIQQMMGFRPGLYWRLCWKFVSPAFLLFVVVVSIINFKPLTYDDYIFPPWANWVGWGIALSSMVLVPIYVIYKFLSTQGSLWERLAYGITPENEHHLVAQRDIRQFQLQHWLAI

Cytochrome P450 2D6 = Cytochrome P450 2D6 (Homo sapiens, UniProt P10635); experiment: Inhibition of CYP2D6; format: ADME
Chain of Cytochrome P450 2D6 (P10635 whole entry): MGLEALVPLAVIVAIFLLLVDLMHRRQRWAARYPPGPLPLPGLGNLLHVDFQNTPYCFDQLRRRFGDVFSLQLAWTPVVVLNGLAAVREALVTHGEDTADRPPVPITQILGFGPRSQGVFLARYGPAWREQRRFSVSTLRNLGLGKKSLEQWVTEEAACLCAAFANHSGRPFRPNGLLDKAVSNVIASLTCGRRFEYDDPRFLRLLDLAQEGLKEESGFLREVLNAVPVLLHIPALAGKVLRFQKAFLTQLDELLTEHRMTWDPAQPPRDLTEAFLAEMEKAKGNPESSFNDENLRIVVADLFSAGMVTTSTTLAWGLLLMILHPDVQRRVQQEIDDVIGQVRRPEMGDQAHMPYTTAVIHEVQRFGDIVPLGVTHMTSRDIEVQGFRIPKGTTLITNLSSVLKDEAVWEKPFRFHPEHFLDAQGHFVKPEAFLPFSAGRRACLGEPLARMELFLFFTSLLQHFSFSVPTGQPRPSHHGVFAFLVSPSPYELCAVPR

[4] = target: 5-hydroxytryptamine receptor 2B (Homo sapiens) (UniProt P41595); experiment: Binding affinity to 5HT2B
Chain of 5-hydroxytryptamine receptor 2B (Homo sapiens) (P41595 whole entry): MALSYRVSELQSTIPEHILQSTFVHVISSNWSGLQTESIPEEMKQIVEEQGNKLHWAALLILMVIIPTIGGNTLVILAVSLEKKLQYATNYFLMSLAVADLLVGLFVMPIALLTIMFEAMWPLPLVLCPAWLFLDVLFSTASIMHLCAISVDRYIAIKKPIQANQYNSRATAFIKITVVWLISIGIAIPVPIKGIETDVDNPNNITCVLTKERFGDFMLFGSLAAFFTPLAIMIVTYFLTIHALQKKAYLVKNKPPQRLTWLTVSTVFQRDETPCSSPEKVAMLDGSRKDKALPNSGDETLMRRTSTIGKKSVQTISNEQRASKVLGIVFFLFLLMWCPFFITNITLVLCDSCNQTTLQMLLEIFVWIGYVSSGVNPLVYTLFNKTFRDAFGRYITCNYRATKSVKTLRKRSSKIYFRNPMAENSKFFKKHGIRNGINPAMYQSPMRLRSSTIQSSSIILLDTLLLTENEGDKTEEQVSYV

Chain of Sodium-dependent dopamine transporter (Q01959 whole entry): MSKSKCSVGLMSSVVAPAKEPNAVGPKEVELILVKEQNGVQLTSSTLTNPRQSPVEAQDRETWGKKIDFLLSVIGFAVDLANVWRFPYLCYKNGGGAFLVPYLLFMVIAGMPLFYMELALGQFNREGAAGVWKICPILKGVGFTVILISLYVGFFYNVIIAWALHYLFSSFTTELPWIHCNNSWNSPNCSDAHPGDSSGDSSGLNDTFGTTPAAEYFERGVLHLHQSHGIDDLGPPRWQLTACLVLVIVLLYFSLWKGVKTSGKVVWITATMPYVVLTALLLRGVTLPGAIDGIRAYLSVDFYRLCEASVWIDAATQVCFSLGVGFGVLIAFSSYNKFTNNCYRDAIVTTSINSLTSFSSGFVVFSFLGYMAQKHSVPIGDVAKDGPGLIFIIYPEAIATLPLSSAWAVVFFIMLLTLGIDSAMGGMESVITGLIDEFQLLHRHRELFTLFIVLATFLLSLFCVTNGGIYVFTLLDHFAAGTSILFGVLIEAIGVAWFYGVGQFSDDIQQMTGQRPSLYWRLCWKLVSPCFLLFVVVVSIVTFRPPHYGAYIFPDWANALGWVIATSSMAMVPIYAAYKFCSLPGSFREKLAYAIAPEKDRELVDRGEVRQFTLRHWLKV

Structure (SMILES) | IC50 [1] | IC50 [2] | IC50 [3] | IC50 (Cytochrome P450 2D6) | Activity [4]
CN[C@@H]1Cc2ccccc2[C@H](Oc2ccccc2C)C1 | > 10000 nM | 3000 nM | 190 nM | – | –
CN[C@H]1Cc2ccccc2[C@H](Oc2ccccc2C)C1 | 8000 nM | 590 nM | 8 nM | 250 nM | 250 nM
COc1ccc(O[C@H]2C[C@@H](N(C)C)c3ccccc32)cc1 | > 10000 nM | 130 nM | 6000 nM | – | –
Cc1ccccc1O[C@@H]1C[C@@H](N(C)C)Cc2ccccc21 | > 10000 nM | 700 nM | 430 nM | – | –
Cc1ccccc1O[C@H]1C[C@H](N(C)C)c2ccccc21 | 3400 nM | 150 nM | 150 nM | – | –
CN[C@@H]1Cc2ccccc2[C@@H](Oc2ccccc2C)C1 | 4500 nM | 3300 nM | 200 nM | – | –
CN[C@H]1Cc2ccccc2[C@@H](Oc2ccccc2C)C1 | 6000 nM | 1100 nM | 160 nM | – | –
CN[C@@H]1C[C@H](Oc2ccccc2)c2ccccc21 (relative stereo) | 5000 nM | > 10000 nM | 2000 nM | – | –
CN[C@@H]1C[C@H](Oc2ccccc2C)c2ccccc21 (relative stereo) | 4600 nM | 1400 nM | 660 nM | – | –
CN[C@@H]1CC[C@H](Oc2ccccc2C)c2ccccc21 (relative stereo) | 1000 nM | 5000 nM | 520 nM | – | –
Cc1ccccc1O[C@H]1CC[C@@H](N)c2ccccc21 (relative stereo) | 1000 nM | 2300 nM | 630 nM | – | –
Cc1ccccc1O[C@@H]1CC[C@@H](N)c2ccccc21 (relative stereo) | 1000 nM | > 10000 nM | 950 nM | – | –
Cc1ccccc1O[C@H]1C[C@H](N)c2ccccc21 (relative stereo) | 600 nM | 10000 nM | 840 nM | – | –
CN[C@H]1C[C@H](Oc2ccccc2C)c2ccccc21 (relative stereo) | 180 nM | 370 nM | 72 nM | – | –
CCN[C@@H]1C[C@H](Oc2ccccc2C)c2ccccc21 (relative stereo) | 2500 nM | 8000 nM | 3000 nM | – | –
CCN(CC)[C@@H]1C[C@H](Oc2ccccc2C)c2ccccc21 (relative stereo) | 2500 nM | 3000 nM | 2000 nM | – | –
Cc1ccccc1O[C@H]1C[C@@H](N(C)C(C)C)c2ccccc21 (relative stereo) | > 10000 nM | > 10000 nM | 1100 nM | – | –
CN(C)[C@@H]1C[C@H](Oc2ccc(Cl)cc2)c2ccccc21 (relative stereo) | 7000 nM | 50 nM | 1600 nM | – | –
COc1ccccc1O[C@H]1C[C@@H](N(C)C)c2ccccc21 (relative stereo) | > 10000 nM | 3500 nM | 3000 nM | – | –
CN[C@@H]1C[C@H](Oc2ccc(Cl)cc2)c2ccccc21 (relative stereo) | 4000 nM | 320 nM | 4000 nM | – | –
N[C@@H]1C[C@H](Oc2ccc(Cl)cc2)c2ccccc21 (relative stereo) | 2400 nM | 9000 nM | 4000 nM | – | –
CN(C)[C@@H]1C[C@H](Oc2ccccc2)c2ccccc21 (relative stereo) | > 10000 nM | 2000 nM | 800 nM | – | –
Cc1ccccc1O[C@H]1C[C@@H](N(C)C)c2ccccc21 (relative stereo) | 10000 nM | 300 nM | 150 nM | – | –
N[C@@H]1C[C@H](Oc2ccccc2)c2ccccc21 (relative stereo) | 2000 nM | > 10000 nM | 5000 nM | – | –
CNCCC(Oc1ccccc1OC)c1ccccc1 (stereo not given) [NISOXETINE] | – | 1400 nM | – | – | –
